Laboratory results reported in US4782176A, “Phenoxycarboxylic acids” (Hoffmann-La Roche Inc., priority 1983, dated 1988).
Read-outs that look alike come from different tables or passages of the source.

Experiments:
[1] = system: SRS-A-induced constriction of the guinea pig ileum; experiment: Guinea Pig Ileum, In Vitro (inhibition of SRS-A-induced constriction); conditions: Cavia porcellus; SRS-A (EC50 dose) challenge, 37° C., atropine and pyrilamine present
Description: (a) Guinea Pig Ileum, In Vitro:
The guinea pig ileum bioassay system has been described by Orange and Austen, Adv. Immunol. […] A 1.5 cm segment is removed from animals weighing 300-400 g and suspended in an organ bath containing 10 ml of Tyrodes solution with 10^-6 M atropine sulfate and 10^-6 M pyrilamine maleate. […] The SRS-A utilized in this screen is obtained by challenging chopped lung fragments from actively sensitized guinea pigs with egg albumin, in vitro. A dose-response curve to SRS-A challenge is established for the ileum. […] The drug concentration which inhibits, by 50%, the SRS-A-induced constriction of the guinea pig ileum is determined.

[2] = system: leukotriene E4-induced bronchoconstriction; experiment: Guinea Pig Bronchoconstriction, In Vivo (leukotriene E4 challenge; drug i.v. or oral); conditions: for Guinea Pig Bronchoconstriction, In Vivo % I, 10 mg/kg I.V.: leukotriene E4 challenge; for inhibition in vivo at 100 mg/kg: Cavia porcellus, po, 100 mg/kg p.o.
Description: (b) Guinea Pig Bronchoconstriction, In Vivo:
Male guinea pigs (Hostley strain) weighing 300 to 450 grams are anesthetized with urethane (2 g/kg) intraperitoneally and a polyethylene cannula is inserted into the jugular vein for intravenous drug administration. Tracheal pressure is recorded from a cannula inserted in the trachea and connected to a Statham pressure transducer. Respiration is paralyzed with succinyl choline (1.2 mg/kg, i.v.) and the animals are mechanically respirated (Howard rodent respirator) at 40 breaths/minute and 2.5 cc tidal volume. Two minutes thereafter, propanolol (0.1 mg/kg, i.v.) is administered. Five minutes later, the animals are pretreated intravenously for 30 seconds (at 10 mg/kg) with test drug or control vehicle. The animals are subsequently challenged with a maximally constrictory dose of leukotriene E4 also administered intravenously. The change (cm H2 O) between pre and peak ventilatory pressure readings is averaged for three control animals and five drug treated animals. The percent inhibition is calculated from the following formula: (Control-Drug Treated/Control)×100. For determination of oral activity, spontaneously breathing animals are pretreated orally for 2 hours (at 100 mg/kg) prior to challange with leukitriene E4.

[3] = system: leukotriene E4-induced bronchoconstriction; experiment: Guinea Pig Bronchoconstriction, In Vivo (Aerosol)
Description: (c) Guinea Pig Bronchoconstriction, In Vivo (Aerosol):
(§1) Male guinea pigs (Hartley strain) weighing 300 to 500 g are anesthetized with urethane (2 g/kg) intraperitoneally and a polyethylene cannula is inserted into the jugular vein for drug administration. Tracheal pressure is recorded from a cannula inserted in the trachea and connected to a Statham pressure transducer. After surgical preparation of the animals, a period of time is allowed for pulmonary functions to stabilize. The test compound is administered according to the following protocol. Propanolol (0.1 mg/kg) is administered intravenously while the animals breathed spontaneously. Five minutes thereafter, the animals are exposed for a five minute period to a 1% (w/v) aerosol solution of test compound (adjusted to an alkaline pH where necessary for drug solubilization) or to distilled water of the appropriate pH (for control purposes). A Monaghan (Model 750) ultrasonic nebulizer is used to administer all test compounds by inhalation. The nebulizer ultrasonic frequency is adjusted to produce particles in the 1-8μ diameter range (average 3μ). Aqueous solutions are prepared fresh and introduced into the chamber of the nebulizer. The output of the nebulizer is made available to the animal by directing a bias flow of aerosol through a y tube connected to the tracheal cannula. At the end of the exposure period, the animals are paralyzed with succinylcholine (1.2 mg/kg, i.v.) and mechanically respirated (Harvard rodent respirator) at 40 breaths/minute and 2.5 cc tidal volume. Animals are then challenged with a maximum constrictory dose of leukotriene E4 delivered intravenously 30 seconds after administration of the succinylcholine.
(§2) The change (cm H2 O) between pre and peak ventilatory pressure readings is averaged for the three control animals and five drug treated animals. The percent inhibition is calculated from the following formula: [formula] When various drug concentrations are tested, the percent inhibition at each concentration is plotted as log concentration (abscissa) versus percent inhibition (ordinate) and the IC50 is determined from linear regression analysis.

[4] = system: leukotriene E4-induced bronchoconstriction; experiment: Guinea Pig Bronchoconstriction, In Vivo (Aerosol), duration of action; conditions: 1% aerosol; time for % inhibition to fall below 40%
Description: as §1, §2
In order to determine the duration of action (doa), the animals are prepared as described above, except that the time between aerosol exposure and challenge with LTE4 is varied. All compounds are administered at a concentration of 1%. Duration of action is calculated from plots of time (abscissa) versus % inhibition (ordinate). The duration of action is defined as the time for the % inhibition to fall below 40%.

LD50 = conditions: in vivo, species not given
[5] = 2 hours prior to leukotriene E4 challenge
[6] = time after exposure not given, leukotriene E4 challenge
[7] = determined 30 seconds after exposure to test drug (footnote a)

Row | Guinea Pig Bronchoconstriction, In Vivo Aerosol IC50 (%) ([3]; determined 15 minutes after exposure to test drug (footnote b)) | SMILES | IC50 [1] [nM] | Guinea Pig Bronchoconstriction, In Vivo % I, 10 mg/kg I.V. [2] [%] | inhibition in vivo at 100 mg/kg [2, 5] [%] | Aerosol Duration of Action [4] [min] | Guinea Pig Bronchoconstriction, In Vivo Aerosol IC50 (%) [3, 6] [%] | Guinea Pig Bronchoconstriction, In Vivo Aerosol IC50 (%) [3, 7] [%] | LD50 (LD50; ip, read-out: LD50 i.p.) [mg/kg] | LD50 (LD50; po, read-out: LD50 p.o.) [mg/kg] | oral activity in guinea pig bronchoconstriction (in words) ([2]; oral, 100 mg/kg, 2 hours prior to leukotriene E4 challenge)
1 | 0.1 | CCCc1c(OCC(O)COc2c(C(C)=O)ccc(OCC(=O)O)c2CCC)ccc(C(C)=O)c1O (racemic) [racemic [4-acetyl-3-[3-(4-acetyl-3-hydroxy-2-propylphenoxy)-2-hydroxypropoxy]-2-propylphenoxy]acetic acid] | 1000 | 89 | 29 | 72 | – | – | – | – | –
2 | – | CCCc1c(OCCCOCCCOc2c(C(C)=O)ccc(OCCCC(=O)O)c2CCC)ccc(C(C)=O)c1O [4-[4-Acetyl-3-[3-[3-(4-acetyl-3-hydroxy-2-propylphenoxy)propoxy]propoxy]-2-propylphenoxy]butanoic acid] | 200 | 93 | 56 | 37 | 0.008 | – | – | – | –
3 | – | CCCc1c(OCCCOc2c(C(C)=O)ccc(OCCCC(=O)O)c2CCC)ccc(C(C)=O)c1O [4-[4-acetyl-3-[3-(4-acetyl-3-hydroxy-2-propylphenoxy)propoxy]-2-propylphenoxy]butanoic acid] | 200 | 97 | 81 | – | – | 0.44 | 650 | 770 | –
4 | – | CCCc1c(OCCCCCOc2c(C(C)=O)ccc(OCCCC(=O)O)c2CCC)ccc(C(C)=O)c1O [4-[4-acetyl-3-[[5-(4-acetyl-3-hydroxy-2-propylphenoxy)pentyl]oxy]-2-propylphenoxy]butanoic acid] | 1000 | 92 | 84 | 46 | 0.01 | – | – | – | –
5 | – | CCCc1c(OCC(O)COc2ccc3c(=O)cc(C(=O)O)oc3c2CCC)ccc(C(C)=O)c1O (stereo not shown) [7-[3-(4-Acetyl-3-hydroxy-2-propylphenoxy)-2-hydroxypropoxy]-4-oxo-8-propyl-4H-1-benzopyran-2-carboxylic acid, reference compound] | – | 98 | – | – | – | – | – | – | orally inactive
6 | – | CCCc1c(OCCOCCOc2c(C(C)=O)ccc(OCC(=O)O)c2CCC)ccc(C(C)=O)c1O [[4-acetyl-3-[2-[2-(4-acetyl-3-hydroxy-2-propylphenoxy)ethoxy]ethoxy]-2-propylphenoxy]acetic acid] | 200 | 86 | 26 | 14 | 0.02 | – | 170 | 800 | –
7 | – | CCCc1c(OCCOCCOCCOc2c(C(C)=O)ccc(OCC(=O)O)c2CCC)ccc(C(C)=O)c1O [[4-acetyl-3-[2-[2-[2-(4-acetyl-3-hydroxy-2-propylphenoxy)ethoxy]ethoxy]ethoxy]-2-propylphenoxy]acetic acid] | 1000 | 85 | 4 | 42 | 0.04 | – | 120 | 650 | –
8 | – | CCCc1c(OCCOCCOCCOCCOc2c(C(C)=O)ccc(OCC(=O)O)c2CCC)ccc(C(C)=O)c1O [[4-acetyl-3-[2-[2-[2-[2-(4-acetyl-3-hydroxy-2-propylphenoxy)ethoxy]ethoxy]ethoxy]ethoxy]-2-propylphenoxy]acetic acid] | 300 | 90 | – | 73 | 0.04 | – | – | – | –
9 | – | CCCc1c(OCCCOc2c(C(C)=O)ccc(OCC(=O)O)c2CCC)ccc(C(C)=O)c1O [[4-acetyl-3-[3-(4-acetyl-3-hydroxy-2-propylphenoxy)propoxy]-2-propylphenoxy]acetic acid] | 2000 | 95 | 52 | 90 | – | 0.07 | 90 | 500 | –
10 | – | CCCc1c(OCCCCCOc2c(C(C)=O)ccc(OCC(=O)O)c2CCC)ccc(C(C)=O)c1O [[4-acetyl-3-[5-(4-acetyl-3-hydroxy-2-propylphenoxy)pentyloxy]-2-propylphenoxy]acetic acid] | 100 | 91 | 51 | 55 | 0.02 | – | 140 | 900 | –
